{
  "source": "paper PMC3814675",
  "about": "“Structures of B-Lymphotropic Polyomavirus VP1 in Complex with Oligosaccharide Ligands” (PLoS Pathogens, 2013)",
  "molecules": {"B1": {"name": "B-Lymphotropic Polyomavirus (LPyV) VP1 pentamer, amino acids 28-301 (domain or fragment)", "chain": "GSHMKGGVEVLEVRTGPDAITQIEAYLNPRMGNNIPSEDLYGYSNSINTAFSKASDTPNKDTLPCYSVAVIKLPLLNEDMTCDTILMWEAVSVKTEVVGISSLVNLHQGGKYIYGSSSGCVPVQGTTYHMFAVGGEPLELQGLVASSTATYPDDVVAIKNMKPGNQGLDPKAKALLDKDGKYPVEVWCPDPSKNENTRYYGSFTGGATTPPVMQFTNSVTTVLLDENGVGPLCKGDKLFLSCADIAGVHTNYSETQVWRGLPRYFNVTLRKRIVKNPY", "notes": "non-native amino acids left at the N-terminus after thrombin cleavage of the His-tag; Major capsid protein VP1 of B-Lymphotropic Polyomavirus, K38 strain, amino acids 28-301 (truncations of 27 and 66 residues at the N- and C-termini); Cannot assemble into capsids because of the truncations; The form used for crystals had the His-tag cleaved; the glycan array used the His-tagged form (no …)"}},
  "key": {"[1]": {"target": "T1, LPyV VP1 (B-lymphotropic polyomavirus, UniProt P04010)", "T1 construct": "VP1 residues 28-301 (27 N-terminal and 66 C-terminal residues truncated), pET15b, E. coli BL21(DE3); His-tag cut with thrombin for crystals leaving GSHM (tag kept for glycan array); unassembled pentamer", "T1 sequence (P04010 29-302)": "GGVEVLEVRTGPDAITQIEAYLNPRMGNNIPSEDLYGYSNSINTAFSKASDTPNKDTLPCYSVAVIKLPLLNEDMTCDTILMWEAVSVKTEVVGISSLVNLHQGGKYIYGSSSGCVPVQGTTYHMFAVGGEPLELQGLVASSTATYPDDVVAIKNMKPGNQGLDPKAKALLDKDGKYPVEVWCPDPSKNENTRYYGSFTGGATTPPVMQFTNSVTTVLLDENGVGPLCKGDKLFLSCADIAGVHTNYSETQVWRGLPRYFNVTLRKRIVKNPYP", "assay": "X-ray crystal structure (soaked crystals), […] Å", "assay_type": "binding", "conditions": "40 mM ligand soak 45 min, 0.1 M sodium acetate pH 4.8, 0.2 M CaCl2; outer-surface sialic acid cleft between two VP1 monomers; also bound on glycan array as lipid-linked probe"}, "[2]": {"target": "T1, LPyV VP1", "assay": "X-ray crystal structure (soaked crystals), […] Å", "assay_type": "binding", "conditions": "40 mM ligand soak 10 min, 0.1 M sodium acetate pH 4.8, 0.2 M CaCl2; same cleft as 3SL; also bound on glycan array as lipid-linked probe"}, "[3]": {"target": "the molecule itself", "assay": "crystal structure; unliganded LPyV VP1 and crystals soaked with 3SL or 3SLN; vapor diffusion against isopropanol, 0.1 M sodium acetate pH 4.8, 0.2 M calcium chloride; two VP1 pentamers in the asymmetric unit"}},
  "data": [
    {"molecule": "CC(=O)N[C@H]1[C@H]([C@H](O)[C@H](O)CO)O[C@@](O[C@H]2[C@@H](O)[C@@H](CO)O[C@@H](O[C@H]3[C@H](O)[C@@H](O)C(O)O[C@@H]3CO)[C@@H]2O)(C(=O)O)C[C@@H]1O", "note": "(stereo partly drawn) [3SL, Neu5Ac-α2,3-Gal-β1,4-Glc]", "values": [
      {"measurement": "X-ray crystal structure (soaked crystals), 1.48 Å", "setting": "[1]", "result": "entry codes 4MBX (unliganded LPyV VP1), 4MBY (complex with 3SL) and 4MBZ (complex with 3SLN)"}
    ]},
    {"molecule": "CC(=O)N[C@H]1[C@H]([C@H](O)[C@H](O)CO)O[C@@](O[C@H]2[C@@H](O)[C@@H](CO)O[C@@H](O[C@H]3[C@H](O)[C@@H](NC(C)=O)C(O)O[C@@H]3CO)[C@@H]2O)(C(=O)O)C[C@@H]1O", "note": "(stereo partly drawn) [3SLN, Neu5Ac-α2,3-Gal-β1,4-GlcNAc]", "values": [
      {"measurement": "X-ray crystal structure (soaked crystals), 1.75 Å", "setting": "[2]", "result": "4MBY (complex with 3SL) and 4MBZ (complex with 3SLN)"}
    ]},
    {"molecule": "B1", "values": [
      {"measurement": "stoichiometry N", "setting": "[3]", "result": 5}
    ]}
  ]
}
